How the values were obtained:
LDL receptor [1] = molecular target: T1, LDL receptor (Homo sapiens, UniProt P01130); experiment: 125I-LDL degradation by unstimulated THP-1 cells; format: cell-based; parameters: In the undifferentiated state THP-1 cells express LDL receptors that are regulated by the lipoprotein content of the culture medium; host or cells: THP-1 cells (unstimulated)
Source text: THP-1 cells were acquired from American Type Culture Collection and cultured in serum-free RPMI-1640 medium supplemented with 1% Nutridoma-HU for 48 hr to upregulate the LDL receptors. LDL was isolated by ultracentrifugation and radiolabeled using the iodine monochloride method as described in Example 8 to a specific activity 200-300 cpm/ng. Greater than 99% of the ^125 I-LDL ligand was precipitable by 10% TCA. The peptides indicated in FIGS. 1A and 1B were synthesized, as described in Example 1, purified to >95% by high pressure liquid chromatography and the amino acid composition verified. All peptides were solubilized in PBS. "AI 74-105"is a control peptide derived from residues 74-105 of apolipoprotein AI, "Monomer" is p(141-155), "Tandem Peptide" is p(141-155)2, "LDL" is unlabelled LDL, and "aLDL" is acetylated LDL.
Binding and degradation of LDL was evaluated as the disappearance of acid soluble ^125 I-LDL radioactivity from the incubation over a 5-hour incubation at 37C. Various concentrations of unlabeled LDL or tandem apo E peptide were coincubated with the ^125 I-LDL to determine their effects on binding and degradation.
For assay, 5×10^5 THP-1 cells in 0.5ml DMEM were co-incubated in a 1.5ml microfuge tube with 2-5 μg/ml of ^125 I-LDL at 37° C. in the presence of various concentrations of competitors indicated in FIGS. 1A and 1B. After 5 hr the cells were pelleted at 5000 x g, the supernatants were removed and the supernatants were extracted with 10% TCA and counted to form a TCA soluble cpm. The results were expressed as B/Bo where B equals the total TCA soluble cpm in supernatant collected in the presence of LDL or peptide and Bo equals the total TCA soluble cpm in supernatant of phosphate buffered saline (PBS) treated control cells. Each point is the average of 4 replicates with standard error of the mean (SEM),10%.

[2] = tested on: ovarian theca/interstitial cells; experiment: ovarian androgen (androstenedione) production, LH-stimulated cultures; format: cell-based, rats; details: 48 hours
Source text: The cell system used to examine the effect of various peptides and conjugates on ovarian androgen production was that described by Curtiss et al., J. Biol. Chem., 263:10965, (1988). Briefly, hypophysectomized (pituitary removed) immature female rats are sacrificed by cervical dislocation. The ovaries taken from the rats were trimmed free of fat and other non-ovarian tissues, cut into approximately six to eight pieces per ovary and dissociated in a solution of collagenase Dnaase which degrades the connective tissue releasing cell clusters. Approximately one to two hours of 37C incubation is required to dissociate the tissue. The cells were washed three times with fresh McCoy's 5A modified medium supplemented with glutamine and penicillin/streptomycin. No serum was added to this medium. The cells were cultured over night in 10 ml of medium in a T-25 flask to allow the non-steroidogenic cells to adhere. The next day non-adherent cells were recovered, washed three times with fresh media, counted and plated at a density of 1×10^3/ ml aliquotting 0.2 ml per well of a 96-well microtiter plate. All media in the experiment contains luteinizing hormone (LH) at 4 ng/ml and human high density lipoprotein (HDL) at 300 μg protein/mi. Monomeric peptides, peptide-BSA conjugates and self-conjugated peptide preparations at various concentrations (0.2 to 50 μg/ml) were added to the cells. The cells were then cultured for 48 hours at 37C, the supernatants were recovered, transferred to a clean 96-well microtiter plate and kept at -20C until the concentrations of androstenedione and progesterone were measured by radioimmunoassay. Each data point represents the average of measured androstenedione concentrations in four wells per treatment, and the standard error was less than 10% for all data points.
The ability of tandem Apo E peptide p(141-155)2 and self-conjugates of this peptide to affect ovarian androgen production was examined using the assay described in Example 4. […] After 48 hours of culture, the supernatants were collected, the androstenedione concentration measured by radioimmunoassay. […]

LDL receptor [3] = molecular target: T1, LDL receptor; experiment: fibroblast 125I-LDL degradation; format: cell-based; parameters: transferred to DMEM medium with 10% lipoprotein-depleted serum (LPDS) for 48 hr to upregulate the LDL receptors; endogenous in cells; host or cells: normal fibroblasts; details: low concentrations of the tandem peptide
Description: A trimer of the p141-155 peptide, p(141-155)3, was synthesized as in Example 1 and its activity compared with p(141-155) (monomeric) and with p(141-155)2 (dimeric) peptide. Normal fibroblasts were plated in wells of a 96-well culture plate and grown for 96 hr in DMEM medium with 10% FBS. The cells were transferred to DMEM medium with 10% LPDS for 48 hr to up regulate the LDL receptors. The LDL degradation assay was performed according to Example 9 with 2 μg/ml of ^125 I-LDL (300-500 cpm/ng) in 0.2 ml/well in DMEM medium with 10% LPDS and incubated for 5 hr at 37° C. The supernatants removed from the wells were extracted with 10% TCA. The TCA soluble counts were normalized to protein content per well as measured by the Bio-Rad protein assay.

[4] = tested on: Human peripheral blood mononuclear (PBM) cells; experiment: PHA-stimulated PBM cell proliferation in serum-free CFBI medium; format: cell-based
Description: In these studies, human peripheral blood mononuclear (PBM) cells were isolated and assayed for phytohemagglutinin (PHA)-stimulated proliferation as described by Pepe et al (J. Immunol., 136:3716-3723, 1986) except that the cells were resuspended and cultured in a serum-free and protein-free CFBI medium as described by Shive et al, Proc. Natl. Acad. Sci. […] After 48 h the cultures were pulsed for 18 h with […] of [^3 H]-methylthymidine and harvested onto glass fiber filters. Radioactivity of the filters was counted in a Beckman liquid scintillation counter. […] The average biological activity of each polypeptide for inhibiting lymphocyte […] proliferation is shown in Table 6, and is expressed as an average specific activity, which is the peptide concentration that causes a 50% reduction in activity.

T1 sequence (P01130 22-860): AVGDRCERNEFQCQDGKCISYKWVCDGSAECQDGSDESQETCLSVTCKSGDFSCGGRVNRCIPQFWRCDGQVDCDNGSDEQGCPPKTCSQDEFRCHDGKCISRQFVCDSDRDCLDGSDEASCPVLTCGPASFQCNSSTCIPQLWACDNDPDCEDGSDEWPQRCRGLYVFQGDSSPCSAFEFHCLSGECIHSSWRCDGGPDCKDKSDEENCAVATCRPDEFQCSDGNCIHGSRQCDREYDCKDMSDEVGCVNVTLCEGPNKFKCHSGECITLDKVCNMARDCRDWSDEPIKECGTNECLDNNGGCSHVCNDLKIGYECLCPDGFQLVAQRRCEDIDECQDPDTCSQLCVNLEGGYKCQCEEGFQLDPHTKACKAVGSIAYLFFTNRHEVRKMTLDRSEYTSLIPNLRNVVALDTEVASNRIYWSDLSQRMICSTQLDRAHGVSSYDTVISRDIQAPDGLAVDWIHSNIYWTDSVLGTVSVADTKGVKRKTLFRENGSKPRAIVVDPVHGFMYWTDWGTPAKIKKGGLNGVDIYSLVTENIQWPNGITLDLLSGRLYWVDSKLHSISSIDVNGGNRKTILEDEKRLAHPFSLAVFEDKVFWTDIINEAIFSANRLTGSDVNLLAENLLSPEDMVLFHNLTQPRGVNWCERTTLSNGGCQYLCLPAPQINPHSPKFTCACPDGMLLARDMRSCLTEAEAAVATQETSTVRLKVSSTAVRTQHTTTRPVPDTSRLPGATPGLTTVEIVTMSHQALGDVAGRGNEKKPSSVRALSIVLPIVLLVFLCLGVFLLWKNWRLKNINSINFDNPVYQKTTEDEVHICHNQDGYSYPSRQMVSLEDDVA

SMILES: CC(C)C[C@H](NC(=O)[C@H](CC(=O)O)NC(=O)[C@H](CC(=O)O)NC(=O)[C@H](C)NC(=O)[C@H](CC(=O)O)NC(=O)[C@H](CCCNC(=N)N)NC(=O)[C@H](CC(C)C)NC(=O)[C@H](CC(C)C)NC(=O)[C@H](CCCNC(=N)N)NC(=O)[C@H](CCCCN)NC(=O)[C@H](CCCNC(=N)N)NC(=O)[C@H](CC(C)C)NC(=O)[C@H](CCCCN)NC(=O)[C@H](CCCNC(=N)N)NC(=O)[C@H](CC(C)C)NC(=O)[C@H](CC(C)C)NC(=O)[C@H](CC(=O)O)NC(=O)[C@H](CC(=O)O)NC(=O)[C@H](C)NC(=O)[C@H](CC(=O)O)NC(=O)[C@H](CCCNC(=N)N)NC(=O)[C@H](CC(C)C)NC(=O)[C@H](CC(C)C)NC(=O)[C@H](CCCNC(=N)N)NC(=O)[C@H](CCCCN)NC(=O)[C@H](CCCNC(=N)N)NC(=O)[C@H](CC(C)C)NC(=O)[C@H](CCCCN)NC(=O)[C@H](CCCNC(=N)N)NC(=O)[C@@H](N)CC(C)C)C(=O)O [p(141-155)2]
- molar excess compared with LDL required to achieve 50% inhibition of degradation (LDL receptor [1]): ~200 fold
- inhibition at 12.5 µM (LDL receptor [1]; THP-1, 12.5 uM): 80%
- effect on LDL degradation by THP-1 cells (LDL receptor [1]; low concentrations of the tandem peptide): significant enhancement
- IC50 (LDL receptor [1]; read-out: concentration inhibiting 125I-LDL degradation by 50%): 5 µM
- concentrations at which androstenedione production was enhanced [2]: less than 0.04 μg/ml
- concentrations that inhibited androstenedione production ([2]; dose-dependent): 0.2 to 2 µg/mL
- effect on LDL degradation by fibroblasts (LDL receptor [3]): significant enhancement
- biologic activity (inhibition of lymphocyte proliferation) [4]: loss of biologic activity
- peptide concentration above which uptake of tritiated thymidine / lymphocyte proliferation was inhibited [4]: above 4 uM
- IC50 ([4]; read-out: Average Specific Activity (peptide concentration that causes a 50% reduction in activity)): 4.8 ± 1.1 µM

From patent publication US5473039A, “Polypeptide analogs of apolipoprotein E, diagnostic systems and methods using the analogs” (The Scripps Research Institute, priority 1991, dated 1995)
